Measurements from patent US10688086B2, “Method for treating cancer with dihydropyridine calcium antagonist” (GERMARK BIOTECHNOLOGY CO., LTD, priority 2016, dated 2020).

Experiments:
[1] = test system: patients with gastric cancer; experiment: NHIRD statistical analysis of death/survival with vs without Amlodipine, gastric cancer; format: in vivo, human
Protocol: (§1) In this example, statistical analysis was performed on the statistics of the effects of Amlodipine in the treatment of cancers, using data from the National Health Insurance Research Database (NHIRD) covering detailed healthcare data for the population in Taiwan. Then, the diagnostic data at the time of admission in the database and the database of patients with registered major injuries were used, and statistical analysis was performed using data from patients with gastric cancer.
(§2) The dose of Amlodipine used in Example 1 was at least 120 mg/30 days. Therefore, in order to obtain the minimum effective dose, the survival rate of patients treated with Amlodipine for days in 90 days after cancer diagnosis was further statistically analyzed.

[2] = test system: patients having colorectal cancer; experiment: NHIRD statistical analysis of death/survival with vs without Amlodipine, colorectal cancer; format: in vivo, human
[3] = test system: patients having liver cancer; experiment: NHIRD statistical analysis of death/survival with vs without Amlodipine, liver cancer; format: in vivo, human
[4] = test system: patients having breast cancer; experiment: NHIRD statistical analysis of death/survival with vs without Amlodipine, breast cancer; format: in vivo, human
[5] = test system: patients having cervical cancer; experiment: NHIRD statistical analysis of death/survival with vs without Amlodipine, cervical cancer; format: in vivo, human
[6] = test system: patients having bladder cancer; experiment: NHIRD statistical analysis of death/survival with vs without Amlodipine, bladder cancer; format: in vivo, human
HepG2 cells [7] = experiment: Cell viability (WST-1 72 hrs; PI flow cytometry 48 hrs), HepG2; format: cell-based
Protocol: Two liver cancer cell lines HepG2 and Hep3B were cultured. The medium used for the culture of the cells was DMEM medium containing 10% fetal bovine serum, 10,000 U/ml penicillin and 10,000 μg/ml streptomycin. The culture occurred in an environment at 37° C. with 5% CO2, and the medium was changed every 2-3 days during the culture. After the cells were cultured to about 70% confluence, they were treated with various concentrations of Amlodipine: 0, 1.5625, 3.125, 6.25, 12.5, 25, and 50 μM for various times: 48, and 72 hrs. After the experiment, the viability of each liver cancer cell line was observed and the cell viability and cell cycle were analyzed. The HepG2 and Hep3B cells treated with various concentrations of Amlodipine for 72 hrs were added to WST-1 reagent. After 330 minutes of reaction, the absorbance at a wavelength of 420-480 nm was measured. The HepG2 and Hep3B cells treated with various concentrations of Amlodipine for 48 hrs were scraped off with 0.05% Trypsin-EDTA, and then added to 2 mg/ml PI solution. The cell viability was analyzed by flow cytometry.

HepG2 cells [8] = experiment: Western blotting of apoptosis-related proteins, HepG2; format: cell-based; conditions: various concentrations, 24 hours
Protocol: The expression of apoptosis-related genes in each liver cancer cell line treated with various concentrations of Amlodipine for 24 hours were detected by Western blotting.

Hep3B cells = experiment: Cell metastasis (Transwell, Calcein AM fluorescence), Hep3B; format: cell-based; conditions: 10 μM, 48 or 72 hrs
Protocol: The HepG2 and Hep3B cells were separately cultured in an insert of the Transwell plate, then added with 10 μM Amlodipine and cultured for 48 or 72 hrs. The insert was placed in a serum-free DMEM medium containing […] Calcien AM. Fluorescent staining was carried out in a culture environment at 37° C. After about 45-60 min, the cells were scraped off with 0.05% Trypsin-EDTA, and the fluorescence intensity at a wavelength of 490 to 520 nm was measured.

HepG2 cells [9] = experiment: Cell invasion (Transwell, crystal violet), HepG2; format: cell-based; conditions: 10 μM, 72 hrs
Protocol: The HepG2 and Hep3B cells were separately cultured in the insert of the Transwell plate, then added with 10 μM Amlodipine and cultured for 48 or 72 hrs. The cells on the inner surface of the insert were taken out, and the insert was placed in methanol and stained with a crystal violet solution. […] That is, Amlodipine is effective in slowing the progression of cancers, thereby achieving a therapeutic effect in the treatment of cancers.

cancer patients = experiment: NHIRD statistical analysis, cancer patients overall; format: in vivo, human
Protocol: as §1, §2

[10] = 24/30: Amlodipine at least 24 days within 30 days after cancer diagnosis
[11] = 48/60: Amlodipine at least 48 days within 60 days after cancer diagnosis
[12] = 72/90: Amlodipine at least 72 days within 90 days after cancer diagnosis
[13] = Amlodipine for 20 days within 90 days after diagnosis

## CCOC(=O)C1=C(COCCN)NC(C)=C(C(=O)OC)C1c1ccccc1Cl (stereo not shown) [Amlodipine]
[1]; [10]
  Crude HR HRs (95% C.I.): 0.43 (0.39-0.47)
[1]; [11]
  Crude HR HRs (95% C.I.): 0.43 (0.39-0.48)
[1]; [12]
  Crude HR HRs (95% C.I.): 0.42 (0.38-0.47)
[1]; [13]
  Crude HR HRs (95% C.I.): 0.73 (0.66-0.80)
[2]; [10]
  Crude HR HRs (95% C.I.): 0.46 (0.44-0.49)
[2]; [11]
  Crude HR HRs (95% C.I.): 0.44 (0.42-0.47)
[2]; [13]
  Crude HR HRs (95% C.I.): 0.76 (0.72-0.80)
[2]; day of treatment with Amlodipine 72/9
  Crude HR HRs (95% C.I.): 0.44 (0.42-0.47)
[3]; [10]
  Crude HR HRs (95% C.I.): 0.55 (0.53-0.59)
[3]; [11]
  Crude HR HRs (95% C.I.): 0.54 (0.51-0.57)
[3]; [12]
  Crude HR HRs (95% C.I.): 0.55 (0.52-0.58)
[3]; [13]
  Crude HR HRs (95% C.I.): 0.73 (0.69-0.77)
[4]; [10]
  Crude HR HRs (95% C.I.): 0.54 (0.50-0.59)
[4]; [11]
  Crude HR HRs (95% C.I.): 0.53 (0.48-0.57)
[4]; [12]
  Crude HR HRs (95% C.I.): 0.50 (0.46-0.55)
[4]; [13]
  Crude HR HRs (95% C.I.): 0.91 (0.83-0.99)
[5]; [10]
  Crude HR HRs (95% C.I.): 0.50 (0.46-0.55)
[5]; [11]
  Crude HR HRs (95% C.I.): 0.51 (0.46-0.56)
[5]; [12]
  Crude HR HRs (95% C.I.): 0.46 (0.42-0.51)
[5]; [13]
  Crude HR HRs (95% C.I.): 1.00 (0.89-1.11)
[6]; [10]
  Crude HR HRs (95% C.I.): 0.54 (0.50-0.59)
[6]; [11]
  Crude HR HRs (95% C.I.): 0.55 (0.50-0.60)
[6]; [12]
  Crude HR HRs (95% C.I.): 0.55 (0.50-0.61)
[6]; [13]
  Crude HR HRs (95% C.I.): 0.82 (0.75-0.90)
HepG2 cells [7]
  Amlodipine concentration at which the best inhibitory effect on the growth of liver cancer cells is achieved: greater than or equal to 12.5 μM
HepG2 cells [7]; 1.5625-50 μM, 48 and 72 hrs, FIGS. 9, 11, 12
  cell viability of liver cancer cells treated with Amlodipine: decreased
HepG2 cells [8]
  intracellular expression of apoptotic proteins (Western blotting): results in the intracellular expression of apoptotic proteins
Hep3B cells
  fluorescence intensity (cell metastasis) vs cells not treated with Amlodipine: lower
HepG2 cells [9]
  cell invasion (crystal violet staining): lower
Cancer patients; Table 1, at least 120 mg/30 days
  mortality of cancer patients (in words): effectively reduce the mortality of cancer patients
Cancer patients; Table 2, FIGS. 1-8, 100 mg in 90 days, follow-up 3 years, vs no Amlodipine
  survival rate of cancer patients (in words): increase the survival rate of cancer patients
